Experimental data published in patent US20110183978A1, “Phenylpyri(mi)dinylazoles” (Bayer CropScience AG, priority 2009, published 2011).
Read-outs that look alike come from different tables or passages of the source.

Assays:
Plasmopara viticola = test: Example N: in vivo test on Plasmopara viticola (downy mildew, vine/protective); conditions: 144 h, vine, protective, assessment 6 days after inoculation, read-out: % Wirkungsgrad
Experimental: (§1) Emulsifier: 1 part by weight alkylaryl polyglycol ethers For the preparation of a suitable active substance preparation, 1 part by weight of active substance is mixed with the stated quantities of solvent and emulsifier and the concentrate is diluted to the desired concentration with water. For the testing for protective activity, young plants are sprayed with the active substance preparation at the stated application dosage. […] The plants are then moistened and placed in an incubation cabin for 1 day. 6 days after the inoculation, the assessment takes place.

Alternaria solani = test: Example M: in vivo test on Alternaria solani (leaf blotch disease/tomato/protective); conditions: 168 h, tomato, protective, 500 ppm active substance, assessed 7 days after inoculation, read-out: % Wirkungsgrad (activity level)
Outline: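 Protective test: young tomato plants sprayed with active substance (in DMF with alkylaryl polyglycol ether emulsifier, diluted in water) at the stated dosage, then inoculated with Alternaria solani. Disease assessed 7 days after inoculation.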

Venturia inaequalis = test: Example O: in vivo test on Venturia inaequalis (apple scab/protective); conditions: 240 h, protective, assessment 10 days after inoculation, read-out: % Wirkungsgrad
Experimental: as §1, with “10” for “The plants are then moistened and placed in an incubation cabin for 1 day. 6”

Sphaerotheca fuliginea [1] = test: Example L: in vivo test on Sphaerotheca fuliginea (powdery mildew on cucumber/protective); conditions: Podosphaera fuliginea, 168 h, cucumber, protective, assessment 7 days after inoculation, read-out: % Wirkungsgrad
Outline: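 Young cucumber plants sprayed at stated dosage with compound in DMF/alkylaryl polyglycol ether emulsifier diluted in water; inoculated with S. fuliginea spores one day later. Kept in greenhouse at 70% relative humidity, 23° C; protective activity assessed 7 days after inoculation.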

[2] = test system: Mycosphaerella graminicola; test: Example G: in vivo test on Mycosphaerella graminicola (wheat leaf blotch disease); conditions: Zymoseptoria tritici, wheat plants sprayed 24 hours before inoculation, scored after 21 to 28 days, read-out: % Wirkungsgrad
Experimental: In Vivo Test on Mycosphaerella Graminicola (Wheat Leaf Blotch Disease) An aqueous suspension of the active substance was prepared by homogenization of a mixture of acetone/Tween/dimethyl sulphoxide and subsequent dilution with water to the desired concentration. Wheat plants (variety: Scipion) are sown in cultivation dishes on a peat-pozzolanic earth substrate (50/50) at 12° C. and sprayed at the first-leaf stage (10 cm size) with the aqueous suspension described above. As a control, plants are sprayed with an aqueous solution with no active substance. After 24 hours the plants are inoculated by spraying with an aqueous suspension of Mycosphaerella graminicola spores (500,000 spores per ml). The spores are derived from a 7 day-old culture. […] After 21 to 28 days they are scored in comparison with the control plants.

Fusarium proliferatum = test: Example I: production of fumonisin FB1 by Fusarium proliferatum (microtitre plates); type: cell-based; conditions: 120 h
Sphaerotheca fuliginea [3] = test: Example D: in vivo test on Sphaerotheca fuliginea (powdery mildew on cucumber); conditions: Podosphaera fuliginea, 288 h, cucumber plants sprayed 24 hours before inoculation, scored after 12 days, read-out: % Wirkungsgrad
Experimental: In Vivo Test on Sphaerotheca Fuliginea (Powdery Mildew on Cucumber) An aqueous suspension of the active substance was prepared by homogenization of a mixture of acetone/Tween/dimethyl sulphoxide and subsequent dilution with water to the desired concentration. Cucumber plants (variety: Vert petit de Paris) are sown in cultivation dishes on a peat-pozzolanic earth substrate (50/50) at 20/23° C. and at the cotyledon stage Z10 sprayed with the aqueous suspension described above. As a control, plants are sprayed with an aqueous solution with no active substance. After 24 hours the plants are inoculated by spraying with an aqueous suspension of Sphaerotheca fuliginea spores (100,000 spores per ml). The spores are derived from a contaminated plant. The inoculated cucumber plants are incubated at ca. 20/25° C. at a relative atmospheric humidity of 60/70%. After 12 days they are scored in comparison with the control plants.

Peronospora parasitica = test: Example A: in vivo test on Peronospora parasitica (downy mildew on white cabbage); conditions: Hyaloperonospora parasitica, 120 h, cabbage plants sprayed 24 hours before inoculation, scored after 5 days, read-out: % Wirkungsgrad
Experimental: In Vivo Test on Peronospora Parasitica (Downy Mildew on White Cabbage) An aqueous suspension of the active substance was prepared by homogenization of a mixture of acetone/Tween (dispersant)/dimethyl sulphoxide (DMSO) and subsequent dilution with water to the desired concentration. Cabbage plants (variety: Eminence) are sown in cultivation dishes on a peat-pozzolanic earth substrate (50/50) at 18-20° C. and sprayed at the cotyledon stage with the aqueous suspension described above. As a control, plants are sprayed with an aqueous solution with no active substance. After 24 hours, the plants are inoculated by spraying with an aqueous suspension of Peronospora parasitica spores (50,000 spores per ml). The spores are derived from infected plants. The inoculated cabbage plants are incubated for 5 days at ca. 20° C. in a moist atmosphere. After 5 days, they are scored in comparison with the control plants.

Botrytis cinerea = test: Example P: in vivo test on Botrytis cinerea (gray mould on bean/protective); conditions: 48 h, bean, protective, 250 ppm active substance, assessed 2 days after inoculation, read-out: % Wirkungsgrad (activity level)
Experimental: as §1, with “dosage. After drying of the spray coating, 2 small pieces of agar with Botrytis cinerea growing on them are laid on every leaf.” for “dosage.”, “2” for “The plants are then moistened and placed in an incubation cabin for 1 day. 6”, “size of the infection blotches on the leaves is assessed.” for “assessment takes place.”

[4] = LogPA (logP of the stated pure compound or, in a mixture, of the main isomer, 1-substituted 3-aryl-1H-pyrazole)
[5] = Fusarium proliferatum growth, OD 620, 5 days, read-out: % Inhibition des Pilzwachstums bei 50 μM
[6] = Fusarium proliferatum, 5 days at 20° C., HPLC-MS/MS, read-out: % Inhibition der FB1 produktion bei 50 μM

| chromatographic logP (physchem; LogPA) | chromatographic logP (physchem; [4]) | SMILES | pest or weed control at 100 ppm (Plasmopara viticola) [%] | pest or weed control at 500 ppm (Alternaria solani) [%] | pest or weed control at 100 ppm (Venturia inaequalis) [%] | pest or weed control at 500 ppm (Sphaerotheca fuliginea [1]) [%] | pest or weed control at 500 ppm [2] [%] | inhibition at 50 µM (Fusarium proliferatum; [5]) [%] | inhibition at 50 µM (Fusarium proliferatum; [6]) [%] | pest or weed control at 500 ppm (Sphaerotheca fuliginea [3]) [%] | pest or weed control at 500 ppm (Peronospora parasitica) [%] | pest or weed control at 250 ppm (Botrytis cinerea) [%] |
| --- | --- | --- | --- | --- | --- | --- | --- | --- | --- | --- | --- | --- |
| 2.62 | – | CCC(C)C(=O)Nc1cc(-c2cn(CC(F)F)nc2-c2ccc(F)cc2)ccn1 (centres unmarked) [Compound 239] | 88 | 100 | 98 | 95 | – | – | – | – | – | – |
| – | 1.39 | Fc1cccc(F)c1-c1nn(CC(F)(F)F)cc1-c1ccncc1 [Compound 12] | – | – | – | – | 77 | – | – | 95 | – | – |
| – | 3.85 | CC(=O)n1ccc2c(-c3cn(C4CCCCO4)nc3-c3ccc(F)cc3)ccnc21 (centres unmarked) [Compound 81] | – | 95 | – | – | 97 | – | – | 77 | 89 | – |
| – | 1.21 | Fc1cccc(F)c1-c1c(-c2ccncc2)cnn1CC1CCCO1 (centres unmarked) [Compound 27] | – | – | – | – | 97 | – | – | 73 | – | – |
| – | 1.16 | Fc1cccc(F)c1-c1nn(CC2CCCO2)cc1-c1ccncc1 (centres unmarked) [Compound 26] | – | – | – | – | 88 | – | – | 80 | – | – |
| – | 1.79 | CC(C)(C)Cn1ncc(-c2ccncc2)c1-c1c(F)cccc1F [Compound 6] | – | – | – | – | 85 | – | – | 95 | 70 | – |
| 2.9 | – | O=C(Nc1cc(-c2cn(CC(F)F)nc2-c2ccc(F)cc2)ccn1)c1ccccc1 [Compound 237] | 84 | 100 | 95 | 88 | – | – | – | – | – | 100 |
| – | 1.49 | Fc1cccc(F)c1-c1c(-c2ccncc2)cnn1C1CCC1 [Compound 15] | – | 95 | – | 95 | 97 | – | – | 87 | 75 | – |

| SMILES | chromatographic logP (physchem; LogPA) | chromatographic logP (physchem; [4]) | pest or weed control at 100 ppm (Plasmopara viticola) [%] | pest or weed control at 500 ppm (Alternaria solani) [%] | pest or weed control at 100 ppm (Venturia inaequalis) [%] | pest or weed control at 500 ppm (Sphaerotheca fuliginea [1]) [%] | pest or weed control at 500 ppm [2] [%] | inhibition at 50 µM (Fusarium proliferatum; [5]) [%] | inhibition at 50 µM (Fusarium proliferatum; [6]) [%] | pest or weed control at 500 ppm (Sphaerotheca fuliginea [3]) [%] | pest or weed control at 500 ppm (Peronospora parasitica) [%] | pest or weed control at 250 ppm (Botrytis cinerea) [%] |
| --- | --- | --- | --- | --- | --- | --- | --- | --- | --- | --- | --- | --- |
| C#CCn1ccc2c(-c3cn(C(C)C)nc3-c3ccc(F)cc3)ccnc21 [Compound 47] | – | 3.63 | – | – | – | – | 77 | 0 | 98 | – | – | – |
| CNC(=O)c1cc(-c2cn(C(C)C)nc2-c2ccc(F)cc2)ccn1 [Compound 53] | – | 2.74 | – | – | – | – | 91 | 0 | 96 | 98 | – | – |
